Experimental data taken from article doi:10.1101/2022.09.09.507210v3, “The class XIV myosin of Toxoplasma gondii, TgMyoA, is druggable in an animal model of infection” (biorxiv, 2023).
Where two headings read alike, the source gives them in different places.

How the values were obtained:
in vitro [1] = experiment: in vitro; design: species or system HepG2; settings: human, hff cells, read-out: HFF cells 80 uM
Procedure: (§1) The table summarizes the activity of each of the compounds in assays measuring recombinant TgMyoA ATPase activity, parasite growth and mammalian cell toxicity; the data on which the table is based are shown in Suppl. Figures 3-5. ATPase assay data correspond to relative luminescence units × 10^−6 (mean from 3 independent replicates +/-SEM) in the presence of 20 μM compound (Suppl. Figure 3). […] Growth assay data correspond to calculated IC50 and 95% confidence interval from a 5-6 day growth assay (Suppl. Figure 4). […] Toxicity assay entries summarize the results from 72-hour CellTox™ Green toxicity and CellTiter-Glo® viability assays on both human foreskin fibroblasts and HepG2 cells. Thresholds for mild and moderate toxicity and loss of viability compared to vehicle (DMSO) controls are indicated by the colored bars on the right hand side of Suppl. […] Fluorescence was measured daily to quantify parasite growth, in the continued presence of compound, over the next 7 days. RFU = relative fluorescence units. The data shown are the mean ± SEM from two independent biological replicates, each consisting of 3 technical replicates at all time points. […] See Figure 5A for a repeat of these growth assays and IC50 calculations. […] Cell viability/growth was measured using Promega CellTiter-Glo® (top panel) and toxicity was measured using Promega CellTox™ green (bottom panel). 0.1% w/v NaN3 served as a positive control for cytotoxicity / growth inhibition. Results are plotted relative to the DMSO controls. Bars show the mean of three independent experiments ± SEM.

in vitro [2] = experiment: in vitro; design: species or system HFF; settings: human, hepg2 cells, read-out: HepG2 cells 80 uM
Procedure: as §1

[3] = system: T1, Toxoplasma gondii RH (tdTomato); experiment: microbe, parasite or virus in culture; design: species or system HFF (host); tdTomato parasite growth in HFF cells, daily fluorescence, IC50 at day 5-6; settings: HFF
T1 construct: RH
Procedure: 557 558 Parasite growth assays. Fluorescence-based growth assay. To quantify growth in the presence of compound(s), 1x10^4 559 tachyzoites were preincubated with compound for 5 minutes prior to inoculation onto 560 3 wells of a black sided, clear bottom 384-well plate containing a confluent monolayer of HFF cells. For 561 compound assays, parasites expressing tdTomato were incubated with vehicle or serial dilutions of 562 compound, maintaining a constant DMSO concentration (0.2% v/v). The fluorescent signal was 563 quantified daily for 7 days (ex 530/25, em 590/35) on a Biotek synergy 2 plate reader. The IC50 of growth 564 inhibitory compounds was quantified using GraphPad Prism. Plaque assay. 10, 100, 200, or 500 565 parasites were used to inoculate a confluent monolayer of HFF cells in a 12-well plate and incubated for 566 7 days at 37 °C, 5% CO2. Infected monolayers were then washed with phosphate-buffered saline, fixed 567 with 100% EtOH for five minutes, stained with 5X crystal violet solution (12.5 g crystal violet, 125 ml 568 100% EtOH, 500 ml 1% w/v ammonium oxalate) for 5 minutes, washed with PBS, and allowed to dry.  Figure 3: Preliminary structure-activity relationship (SAR) analysis. […] The table summarizes the activity of each of the compounds in assays measuring recombinant TgMyoA ATPase activity, parasite growth and mammalian cell toxicity; the data on which the table is based are shown in Suppl. Figures 3-5. ATPase assay data correspond to relative luminescence units × 10^−6 (mean from 3 independent replicates +/-SEM) in the presence of 20 μM compound (Suppl. Figure 3). […] Growth assay data correspond to calculated IC50 and 95% confidence interval from a 5-6 day growth assay (Suppl. Figure 4). […] Toxicity assay entries summarize the results from 72-hour CellTox™ Green toxicity and CellTiter-Glo® viability assays on both human foreskin fibroblasts and HepG2 cells. Thresholds for mild and moderate toxicity and loss of viability compared to vehicle (DMSO) controls are indicated by the colored bars on the right hand side of Suppl. […] Fluorescence was measured daily to quantify parasite growth, in the continued presence of compound, over the next 7 days. RFU = relative fluorescence units. The data shown are the mean ± SEM from two independent biological replicates, each consisting of 3 technical replicates at all time points. […] See Figure 5A for a repeat of these growth assays and IC50 calculations. […] Cell viability/growth was measured using Promega CellTiter-Glo® (top panel) and toxicity was measured using Promega CellTox™ green (bottom panel). 0.1% w/v NaN3 served as a positive control for cytotoxicity / growth inhibition. Results are plotted relative to the DMSO controls. Bars show the mean of three independent experiments ± SEM.

[4] = molecular target: T2, rabbit fast skeletal muscle myosin; experiment: myofibril ATPase assay; assay type: biochemical, Oryctolagus cuniculus; settings: 75% calcium activation (pCa75); up to 40 μM tested
T2 construct: gene MYH4; native rabbit fast skeletal myofibrils, full length, with native light chains and thin filaments
From the text: myofibril ATPase assay on rabbit fast skeletal muscle myosin

Compound | CC50 at 72 h (in vitro [1]) | CC50 at 72 h (in vitro [2]) | IC50 ([3]; read-out: Parasite Growth IC50) | IC50 ([3]; read-out: IC50 (D5)) | IC50 [4]
COc1ccc(C2(NCc3cc[nH]c3)CC2)cc1 [VEST10, N-((1H-pyrrol-3-yl)methyl)-1-(4-methoxyphenyl)cyclopropan-1-amine] | > 80 µM | > 80 µM | 21.7 µM | – | –
COc1ccc(C2(NCc3c[nH]nc3-c3ccccc3)CC2)cc1 [VEST6, 1-(4-methoxyphenyl)-N-((3-phenyl-1H-pyrazol-4-yl)methyl)cyclopropan-1-amine] | > 80 µM | > 80 µM | 24.9 µM | – | –
c1csc(-c2n[nH]cc2CNC2CC2)c1 [VEST1, N-((3-(thiophen-2-yl)-1H-pyrazol-4-yl)methyl)cyclopropanamine] | > 80 µM | > 80 µM | > 80 µM | – | –
COc1ccc(C2(NCc3ccccc3)CC2)cc1 [VEST7, N-benzyl-1-(4-methoxyphenyl)cyclopropan-1-amine] | > 80 µM | > 80 µM | > 80 µM | – | –
c1ccc(CNCc2c[nH]nc2-c2cccs2)cc1 [VEST12, N-benzyl-1-(3-(thiophen-2-yl)-1H-pyrazol-4-yl)methanamine] | – | > 80 µM | > 80 µM | – | –
COc1ccc(C2(NCc3c[nH]nc3-c3cccs3)CC2)cc1 [KNX-002, 1-(4-methoxyphenyl)-N-((3-(thiophen-2-yl)-1H-pyrazol-4-yl)methyl)cyclopropan-1-amine] | > 80 µM | > 80 µM | 19.7 µM | 14.9 µM | > 39.2 µM
COc1ccc(C2(NCc3cncs3)CC2)cc1 [VEST8, 1-(4-methoxyphenyl)-N-(thiazol-5-ylmethyl)cyclopropan-1-amine] | > 80 µM | > 80 µM | > 80 µM | – | –
Clc1ccc(C2(NCc3c[nH]nc3-c3cccs3)CC2)cc1 [VEST2, 1-(4-chlorophenyl)-N-((3-(thiophen-2-yl)-1H-pyrazol-4-yl)methyl)cyclopropan-1-amine] | – | – | 15.5 µM | – | –
CC(C)(NCc1c[nH]nc1-c1cccs1)c1ccccc1 [VEST13, 2-phenyl-N-((3-(thiophen-2-yl)-1H-pyrazol-4-yl)methyl)propan-2-amine] | – | > 80 µM | 27.1 µM | – | –
Cc1ccc(C2(NCc3c[nH]nc3-c3cccs3)CC2)cc1 [VEST3, N-((3-(thiophen-2-yl)-1H-pyrazol-4-yl)methyl)-1-(p-tolyl)cyclopropan-1-amine] | – | – | 25.4 µM | – | –
Clc1ccc(C2(NCc3c[nH]nc3-c3cccs3)CC2)cc1Cl [VEST4, 1-(3,4-dichlorophenyl)-N-((3-(thiophen-2-yl)-1H-pyrazol-4-yl)methyl)cyclopropan-1-amine] | > 80 µM | > 80 µM | 31 µM | – | –
COc1ccc(CNCc2c[nH]nc2-c2cccs2)cc1 [VEST11, N-(4-methoxybenzyl)-1-(3-(thiophen-2-yl)-1H-pyrazol-4-yl)methanamine] | > 80 µM | > 80 µM | > 80 µM | – | –
COc1ccc([C@H](C)NCc2c[nH]nc2-c2cccs2)cc1 [VEST15, (S)-1-(4-methoxyphenyl)-N-((3-(thiophen-2-yl)-1H-pyrazol-4-yl)methyl)ethan-1-amine] | – | > 80 µM | 39.7 µM | – | –
COc1ccc(C2(NCc3ccoc3)CC2)cc1 [VEST9, N-(furan-3-ylmethyl)-1-(4-methoxyphenyl)cyclopropan-1-amine] | > 80 µM | > 80 µM | > 80 µM | – | –
COc1ccc([C@@H](C)NCc2c[nH]nc2-c2cccs2)cc1 [VEST14, (R)-1-(4-methoxyphenyl)-N-((3-(thiophen-2-yl)-1H-pyrazol-4-yl)methyl)ethan-1-amine] | – | > 80 µM | 44.3 µM | – | –
c1ccc(C2(NCc3c[nH]nc3-c3cccs3)CC2)cc1 [VEST5, 1-phenyl-N-((3-(thiophen-2-yl)-1H-pyrazol-4-yl)methyl)cyclopropan-1-amine] | > 80 µM | > 80 µM | 9.9 µM | – | –
